Test results published in patent US8178658B2 (Dow AgroSciences, LLC, priority 2008, dated 2012).
Where two headings read alike, the source gives them in different places.

Legend:
[1] = test system: beet armyworm (BAW; Spodoptera exigua: Lepidoptera); test: 96-well microtiter plate-based high throughput (HTS) diet bioassay on beet armyworm (BAW HTS); type: in vivo; settings: for pest or weed control at 12 µg/well, 12 µg/well: Spodoptera exigua, 144 h, read-out: BAW HTS
Method in brief: (§1)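 Two diet formats. HTS: eggs on 96-well diet overlaid with 12 μg compound, held 6 d at 29° C in dark, mean mortality of six replicates. BAW 50: three to five second-instar larvae per well on diet dosed at 50 μg/cm^2, held six days at 25° C under 14:10 light-dark, mortality averaged across eight wells.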

[2] = test system: beet armyworm (BAW; Spodoptera exigua: Lepidoptera); test: 128-well diet tray assay on beet armyworm (BAW 50); type: in vivo; settings: for pest or weed control at 50 µg/cm2, 50 µg/cm2: Spodoptera exigua, 144 h, read-out: BAW 50 ug/cm2
Method in brief: as §1

[3] = 96-well HTS diet assay, BAW eggs, 12 μg test compound per well, mortality at 6 d post-treatment, mortality class
[4] = 96-well microtiter plate HTS diet assay, 12 μg test compound per well, BAW eggs, mortality at 6 d post-treatment, mortality class
[5] = 128-well diet tray assay, 50 μg/cm^2 of test compound on diet, second instar BAW larvae, mortality class
[6] = 96-well HTS diet bioassay, BAW eggs, 12 μg test compound per well, mortality at 6 d post-treatment, mortality class

| SMILES | BAW HTS [1, 3] | BAW HTS [1, 4] | BAW 50 ug/cm2 [2, 5] | BAW HTS [1, 6] | pest or weed control at 12 µg/well, 12 µg/well [1, 3] [%] | pest or weed control at 50 µg/cm2, 50 µg/cm2 ([2]; 128-well diet tray assay, second instar BAW larvae, 50 μg/cm^2 of test compound on diet, mortality class) [%] | pest or weed control at 12 µg/well, 12 µg/well [1] [%] | pest or weed control at 50 µg/cm2, 50 µg/cm2 [2] [%] |
| --- | --- | --- | --- | --- | --- | --- | --- | --- |
| CO[C@@H]1[C@@H](OC)[C@H](C)O[C@H](OC(=O)Nc2ccc(-c3nc(C)n(-c4ccc(OC(F)(F)F)cc4)n3)cc2)[C@@H]1OC [Compound 195] | B (either (1) the compound was tested and less than 50 percent mortality was observed or (2) the compound was not tested) | B (either (1) the compound was tested and less than 50 percent mortality was observed or (2) the compound was not tested) | A (the compound was tested and at least 50 percent mortality was observed) |  |  |  |  |  |
| CCCOC1C(OC)C(C)OC(ON=Cc2ccc(N3CCN(c4ccc(OC(F)(F)F)cc4)CC3)cc2)C1OC (centres unmarked) [Compound 162] | B (either (1) the compound was tested and less than 50 percent mortality was observed or (2) the compound was not tested) | B (either (1) the compound was tested and less than 50 percent mortality was observed or (2) the compound was not tested) | A (the compound was tested and at least 50 percent mortality was observed) |  |  |  |  |  |
| CCOC(=O)C1C(c2ccc(/C=N/O[C@@H]3O[C@@H](C)[C@H](OC)[C@@H](OC)[C@H]3OC)cc2)=NN(c2ccc(OC(F)(F)F)cc2)C1C(=O)OCC (some centres unmarked) [Compound 53] |  | A (the compound was tested and at least 50 percent mortality was observed) | A (the compound was tested and at least 50 percent mortality was observed) | A (the compound was tested and at least 50 percent mortality was observed) |  |  |  |  |
| CCO[C@@H]1[C@@H](OC)[C@H](C)O[C@@H](OC(=O)Nc2ccc(-n3cnn(-c4ccc(OC(F)(F)F)cc4)c3=O)cc2)[C@@H]1OC [Compound 228] | B (either (1) the compound was tested and less than 50 percent mortality was observed or (2) the compound was not tested) | B (either (1) the compound was tested and less than 50 percent mortality was observed or (2) the compound was not tested) | B (either (1) the compound was tested and less than 50 percent mortality was observed or (2) the compound was not tested) |  |  |  |  |  |
| CO[C@@H]1[C@@H](OC)[C@H](C)O[C@@H](O/N=C/c2ccc(-c3ccnc(-c4ccc(OC(F)(F)F)cc4)c3)cc2)[C@@H]1OC [Compound 132] |  | B (either (1) the compound was tested and less than 50 percent mortality was observed or (2) the compound was not tested) | A (the compound was tested and at least 50 percent mortality was observed) |  | < 50 | > 50 |  |  |
| COc1ccc(-c2nccc(-c3ccc(NC(=O)O[C@@H]4O[C@@H](C)[C@H](OC)[C@@H](OC)[C@H]4OC)cc3)n2)cc1 [Compound 234, {4-[2-(4-methoxyphenyl)-pyrimidin-4-yl]-phenyl}-carbamic acid (2S,3R,4R,5S,6S)-3,4,5-trimethoxy-6-methyl-tetrahydropyran-2-yl ester] |  | B (either (1) the compound was tested and less than 50 percent mortality was observed or (2) the compound was not tested) | B (either (1) the compound was tested and less than 50 percent mortality was observed or (2) the compound was not tested) |  |  |  | < 50 | < 50 |
| COC1C(C)OC(ON=Cc2ccc(-c3cn(-c4ccc(Cl)cc4)nn3)cc2)C(OC)C1OC (centres unmarked) [Compound 75] |  | A (the compound was tested and at least 50 percent mortality was observed) | B (either (1) the compound was tested and less than 50 percent mortality was observed or (2) the compound was not tested) | A (the compound was tested and at least 50 percent mortality was observed) |  |  |  |  |
| COc1ccc(-c2cn(-c3ccc(OC(F)(F)F)cc3)cn2)cc1C=NOC1OC(C)C(OC)C(OC)C1OC (centres unmarked) [Compound 25] |  | B (either (1) the compound was tested and less than 50 percent mortality was observed or (2) the compound was not tested) | B (either (1) the compound was tested and less than 50 percent mortality was observed or (2) the compound was not tested) | B (either (1) the compound was tested and less than 50 percent mortality was observed or (2) the compound was not tested) |  |  |  |  |
| CCOC1C(OC)C(C)OC(ON=Cc2ccc(-c3ncc(-c4ccc(OC(F)(F)C(F)(F)F)cc4)cn3)cc2)C1OC (centres unmarked) [Compound 142] | A (the compound was tested and at least 50 percent mortality was observed) | A (the compound was tested and at least 50 percent mortality was observed) | A (the compound was tested and at least 50 percent mortality was observed) |  |  |  |  |  |
| CCCCc1ccc(-n2cnc(-c3ccc(C=NOC4OC(C)C(OC)C(OC)C4OC)cc3)n2)cc1 (centres unmarked) [Compound 81] |  | A (the compound was tested and at least 50 percent mortality was observed) | A (the compound was tested and at least 50 percent mortality was observed) | A (the compound was tested and at least 50 percent mortality was observed) |  |  |  |  |
| C=CCO[C@@H]1[C@@H](OC)[C@H](C)O[C@@H](OC(=O)Nc2ccc(-c3ncn(-c4ccc(OC(F)(F)F)cc4)n3)cc2)[C@@H]1OC [Compound 205] | A (the compound was tested and at least 50 percent mortality was observed) | A (the compound was tested and at least 50 percent mortality was observed) | A (the compound was tested and at least 50 percent mortality was observed) |  |  |  |  |  |
| CCO[C@@H]1[C@@H](OC)[C@H](C)O[C@@H](OC(=O)Nc2ccc(N3CCN(c4ccc(OC(F)(F)F)cc4)C3=O)cc2)[C@@H]1OC [Compound 188] | B (either (1) the compound was tested and less than 50 percent mortality was observed or (2) the compound was not tested) | B (either (1) the compound was tested and less than 50 percent mortality was observed or (2) the compound was not tested) | A (the compound was tested and at least 50 percent mortality was observed) |  |  |  |  |  |
| CCCc1ccc(-n2cnc(-c3ccc(C=NOC4OC(C)C(OC)C(OC)C4OC)cc3)c2)cc1 (centres unmarked) [Compound 27] |  | A (the compound was tested and at least 50 percent mortality was observed) | A (the compound was tested and at least 50 percent mortality was observed) | A (the compound was tested and at least 50 percent mortality was observed) |  |  |  |  |
| COC1C(C)OC(ON=Cc2ccc(-c3ccn(-c4ccc(OC(F)(F)F)cc4)n3)cc2)C(OC)C1OC (centres unmarked) [Compound 12] |  | B (either (1) the compound was tested and less than 50 percent mortality was observed or (2) the compound was not tested) | A (the compound was tested and at least 50 percent mortality was observed) | B (either (1) the compound was tested and less than 50 percent mortality was observed or (2) the compound was not tested) |  |  |  |  |
| C=C(C)c1nc(-c2ccc(NC(=O)O[C@@H]3O[C@@H](C)[C@H](OC)[C@@H](OCC)[C@H]3OC)cc2)nn1-c1ccc(OC(F)(F)F)cc1 [Compound 220] | B (either (1) the compound was tested and less than 50 percent mortality was observed or (2) the compound was not tested) | B (either (1) the compound was tested and less than 50 percent mortality was observed or (2) the compound was not tested) | A (the compound was tested and at least 50 percent mortality was observed) |  |  |  |  |  |
| CCOC1C(OC)C(C)OC(ON=Cc2ccc(-c3ncc(-c4ccc(OC(F)(F)F)cc4)cn3)cc2F)C1OC (centres unmarked) [Compound 148] | B (either (1) the compound was tested and less than 50 percent mortality was observed or (2) the compound was not tested) | B (either (1) the compound was tested and less than 50 percent mortality was observed or (2) the compound was not tested) | A (the compound was tested and at least 50 percent mortality was observed) |  |  |  |  |  |
| CCOC(=O)C1CC(c2ccc(C=NOC3OC(C)C(OC)C(OC)C3OC)cc2)=NN1c1ccc(OC(F)(F)F)cc1 (mixture of isomers) [Compound 13] |  | B (either (1) the compound was tested and less than 50 percent mortality was observed or (2) the compound was not tested) | A (the compound was tested and at least 50 percent mortality was observed) | B (either (1) the compound was tested and less than 50 percent mortality was observed or (2) the compound was not tested) |  |  |  |  |
| CCOC1C(OC)C(C)OC(ON=Cc2ccc(-c3nsc(-c4ccc(OC(F)(F)F)cc4)n3)cc2)C1OC (centres unmarked) [Compound 129] |  | B (either (1) the compound was tested and less than 50 percent mortality was observed or (2) the compound was not tested) | A (the compound was tested and at least 50 percent mortality was observed) | B (either (1) the compound was tested and less than 50 percent mortality was observed or (2) the compound was not tested) |  |  |  |  |
| CCCC1C(c2ccc(/C=N/O[C@@H]3O[C@@H](C)[C@H](OC)[C@@H](OC)[C@H]3OC)cc2)=NN(c2ccc(OC(F)(F)F)cc2)C1C(=O)OCC (some centres unmarked) [Compound 55] |  | A (the compound was tested and at least 50 percent mortality was observed) | A (the compound was tested and at least 50 percent mortality was observed) | A (the compound was tested and at least 50 percent mortality was observed) |  |  |  |  |
